# Data published in patent US11851681B2, “Cell preparation method” (KYOTO PREFECTURAL PUBLIC UNIVERSITY CORPORATION, priority 2015, dated 2023).
# Columns and labels:
# Format in all cases: cell-based
# [1] = tested on: human dermal fibroblasts; HDFs; experiment: Alizarin Red S staining and absorbance, compound panel, Examples 29-30; details: calcification induction medium; compounds 2 μM (Pifthrin-α 5 μM, DZnep 50 nM); day 28; FIG. 33, 34
# Description: The compounds added to the medium and the concentrations thereof are as follows. • I-BET151: 2 μM • Pifthrin-α: 5 μM • PD0325901: 2 μM • 2-Me-5HT: 2 μM • CX4945: 2 μM • CHIR99021: 2 μM • Forskolin: 2 μM • DZnep: 50 nM • D4476: 2 μM • SB431542: 2 μM • ALK5 i II: 2 μM.
# In the experiment of Example 29, the solution after staining with the Alizarin Red S staining solution was collected in a 96 well plate and the absorbance (OD 550 nm) was measured with an absorption spectrometer.
# [2] = tested on: human dermal fibroblasts; HDFs; experiment: Bodipy staining in WA medium, four inhibitors, Example 48; details: day 12, FIG. 52; for lipid droplets stained with Bodipy, inhibitor alone: WA medium added with 16 μM compound alone; for lipid droplets stained with Bodipy / conversion to white adipocyte, inhibitor and Rosiglitazone: WA medium added with 16 μM compound and 1 μM Rosiglitazone
# [3] = tested on: human dermal fibroblasts; HDFs; experiment: Bodipy staining quantification in WA medium, four inhibitors, Example 49; details: 16 μM compound and 1 μM Rosiglitazone, day 12, FIG. 53
# [4] = tested on: Human normal skin-derived fibroblasts (HDFs); experiment: Alizarin Red S and ALP staining, absorbance, TGF-β pathway inhibitor panel, Examples 31-32; details: for efficiency in converting fibroblast to osteoblast (summary statement): description, conditions not given
# Description: On day 21, the culture medium was removed from a part of the well, washed with PBS(-), and fixed with a fixative. It was washed 3 times with sterile distilled water. […] In the experiment of Example 31, the solution after staining with the Alizarin Red S staining solution was collected in a 96 well plate and the absorbance (OD 550 nm) was measured with an absorption spectrometer.
# [5] = tested on: human dermal fibroblasts; HDFs; experiment: Real-time RT-PCR of Osteocalcin and Alkaline Phosphatase, Example 3; details: each compound 2 μM in calcification induction medium; day 24; FIG. 3
# Description: (§1) The concentrations of the compounds are as follows: • D4476: 2 μM • SB431542: 2 μM • ALK5 inhibitor II: 2 μM.
# [6] = tested on: human dermal fibroblasts; HDFs; experiment: Real-time RT-PCR of AdipoQ, Example 14; details: D4476, SB431542, ALK5 Inhibitor II 2 μM, PD0325901 1 μM, in addition to T3 and Rosiglitazone; day 14; FIG. 14
# Description: The concentrations of the additives are as follows: • T3: 1 nM • Rosiglitazone: 1 μM • D4476: 2 μM. • Pifithrin alpha [p53 inhibitor]: 5 μM • PD0325901: 1 μM • SB431542: 2 μM • ALK5 Inhibitor II: 2 μM.
# [7] = tested on: human dermal fibroblasts; HDFs; experiment: Real-time RT-PCR of CIDEA, Example 13; details: compound 2 μM in addition to T3 1 nM and Rosiglitazone 1 μM, adipocyte induction medium; day 14; FIG. 13
# Description: (§2) The concentrations of the additives are as follows: • T3: 1 nM • Rosiglitazone: 1 μM • D4476: 2 μM • Pifithrin alpha [p53 inhibitor]: 5 μM • SB431542: 2 μM • ALK5 Inhibitor II: 2 μM.
# [8] = tested on: Human normal skin-derived fibroblasts (HDFs); experiment: Real-time RT-PCR of UCP1, four inhibitors, Example 39; details: 4 μM, 8 μM, 12 μM or 16 μM in adipocyte induction medium Day 1 to Day 8, then compound-free to day 14; FIG. 43
# Description: The addition concentration of the compound was 4 μM, 8 μM, 12 μM or 16 μM. […] Thereafter, in Day 9-Day 14, culturing was performed in a medium free of ALK5 inhibitor II, LY2157299, SB431542, D4476.
# [9] = tested on: human dermal fibroblasts; HDFs; experiment: Alizarin Red S staining (staining figure), fibroblast to osteoblast, Example 1; details: each compound 2 μM in calcification induction medium; day 24; FIG. 1
# Description: It was washed 3 times with sterile distilled water. […] The well after staining was washed with sterile distilled water and photographed.
# The concentrations of the compounds are as follows: • D4476: 2 μM • ALK5 inhibitor II: 2 μM • SB431542: 2 μM.
# [10] = tested on: human dermal fibroblasts; HDFs; experiment: Real-time PCR of AdipoQ, FABP4, PPAR-γ, four inhibitors with Rosiglitazone, Example 50; details: WA medium added with 1 μM Rosiglitazone and 16 μM compound; day 12
# Description: On day 12, RNA was recovered from the cells and, in the same manner as in Example 47, mRNA of AdipoQ, FABP4 (mature adipocyte marker), and PPAR-γ (preadipocyte marker) was quantified.
# [11] = tested on: Human normal skin-derived fibroblasts (HDFs); experiment: Immunostaining of UCP1, four inhibitors, Example 40; details: LY2157299 8 μM, SB431542 4 μM, D4476 4 μM, Day 1 to Day 8, day 14, FIG. 44; for conversion of fibroblast to brown adipocyte, UCP1 protein: ALK5 inhibitor II 4 μM; for staining with anti-UCP1 antibody: groups 3-6: ALK5 inhibitor II 4 μM
# Description: Human normal skin-derived fibroblasts (HDFs) were suspended in a general medium (DMEM added with 10% FBS). […] The adipocyte induction medium is DMEM added with 1 nM T3, 1 μM Rosiglitazone, 0.5 mM 3-isobutyl-1-methylxanthine (IBMX), 0.5 μM dexamethasone, 1 μg/mL Insulin and 10% FBS. Once every 2 days, the culture medium was exchanged with a fresh one, and culturing was performed from Day 1 to Day 8. Thereafter, from Day 9 to Day 14, the cells were cultured in an adipocyte induction medium free of ALK5 inhibitor II, LY2157299, SB431542, D4476. On day 14, the culture medium was removed by suction from each well, and washed with PBS(−). After fixing with 4% para-formaldehyde, the well was washed with PBS (−), Permanent wave Buffer (0.2% Triton-X addition PBS) was added and the well was incubated for 15 min. After washing 3 times with PBS(−), Blocking One was added, and the mixture was incubated at room temperature for 60 min. Anti-UCP-1 antibody (RD MAB6158) was added and the mixture was reacted for 2 hrs at room temperature, and washed 3 times with Wash buffer. CF488-conjugated anti-mouse Ig antibody (Biotum 20014) was added and the mixture was reacted for 2 hrs at room temperature, and washed 3 times with PBS(−). After nuclear staining with SlowFade Gold antifade reagent with DAPI manufactured by Lifetechnology, the cells were photographed with a fluorescence microscope at ×100 magnification.
# [12] = tested on: human dermal fibroblasts; HDFs; experiment: BODIPY staining and fluorescence intensity, Example 15; details: compound 2 μM in addition to T3 1 nM and Rosiglitazone 1 μM; day 14; FIG. 15A, 15B
# Description: The concentrations of the additives are as follows: • T3: 1 nM • Rosiglitazone: 1 μM • D4476: 2 μM • SB431541: 2 μM • ALK5 inhibitor II: 2 μM.
# The cells were fixed with 4% para-formaldehyde, washed with PBS(−), reacted for 5 min with BODIPY 493/503 (Invitrogen)/PBS solution at room temperature and washed 3 times with PBS. The cells were photographed with a fluorescence microscope at ×200 magnification and the fluorescence intensity was measured.
# [13] = tested on: human dermal fibroblasts; HDFs; experiment: Alizarin Red S staining (absorbance OD 550 nm), Example 2; details: each compound 2 μM in calcification induction medium; day 24; FIG. 2
# Description: as §1
# [14] = tested on: human dermal fibroblasts; HDFs; experiment: Oil Red O staining, fibroblast to brown adipocyte, Example 12; details: compound 2 μM in addition to T3 1 nM and Rosiglitazone 1 μM, adipocyte induction medium; day 14; FIG. 12
# Description: as §2
# Then, the cells were washed with sterile distilled water and photographed with a phase contrast microscope at ×100 magnification.
# [15] = tested on: Human normal skin-derived fibroblasts (HDFs); experiment: Real-time RT-PCR of ALP, Osteocalcin, Bonesialoprotein, Example 35; details: day 18, FIG. 39
# Description: The concentrations of the small molecule compound or cytokine added are as follows. • ALK5 i II: 4 μM • 1α,25-dihydroxy Vitamin D3 (VD3): 5 nM • Human insulin-like growth factor-1 (IGF-1): 100 ng/ml.
molecule,measurement,setting,value
Cc1[nH]c2ccc(O)cc2c1CCN [2-Me-5HT],"conversion from fibroblast to osteoblast, Alizarin Red S staining and absorbance",[1],do not induce conversion from fibroblast to osteoblast
Cc1c[nH]c(-c2cnc(NCCNc3ccc(C#N)cn3)nc2-c2ccc(Cl)cc2Cl)n1 [CHIR],"conversion from fibroblast to osteoblast, Alizarin Red S staining and absorbance",[1],do not induce conversion from fibroblast to osteoblast
"NC(=O)c1ccc(-c2nc(-c3ccc4c(c3)OCCO4)c(-c3ccccn3)[nH]2)cc1 [D4476, 4-[4-(2,3-dihydro-1,4-benzodioxin-6-yl)-5-(2-pyridinyl) 1H-imidazol-2-yl]-benzamide]","lipid droplets stained with Bodipy, inhibitor alone",[2],only a few cells contained lipid droplets stained with Bodipy
same,"lipid droplets stained with Bodipy / conversion to white adipocyte, inhibitor and Rosiglitazone",[2],many cells were stained
same,"conversion from fibroblast to osteoblast, Alizarin Red S staining and absorbance",[1],induce conversion from fibroblast to osteoblast
same,"fat accumulation (BODIPY) / conversion to white adipocyte, co-addition of Rosiglitazone",[3],more strongly induced fat accumulation than by the addition of Rosiglitazone alone
same,efficiency in converting fibroblast to osteoblast (summary statement),[4],highly efficient in converting fibroblast to osteoblast
same,"conversion of human fibroblast to osteoblast, Osteocalcin and Alkaline Phosphatase mRNA",[5],converted to osteoblast expressing osteocalcin and alkaline phosphatase gene
same,"conversion of fibroblast to brown adipocytes, AdipoQ mRNA",[6],converted fibroblast to brown adipocytes expressing mRNA of AdipoQ gene
same,"conversion of fibroblast to brown adipocytes, CIDEA mRNA",[7],converted fibroblast to brown adipocytes expressing mRNA of CIDEA gene
same,"conversion of fibroblast to brown adipocyte, UCP1 mRNA",[8],converted fibroblast to brown adipocyte strongly expressing UCP1 gene
same,"conversion of human fibroblast to osteoblast, Alizarin Red S staining (staining figure)",[9],converted to osteoblast having calcified is bone matrix production ability
same,conversion of human fibroblast to white adipocyte (mRNA markers),[10],converted human fibroblast to white adipocyte
same,"conversion of fibroblast to brown adipocyte, UCP1 protein",[11],converted fibroblast to brown adipocyte expressing UCP1 protein
same,staining with anti-UCP1 antibody,[11],many cells were stained with anti-UCP1 antibody
same,"conversion of fibroblast to brown adipocytes, BODIPY staining and fluorescence intensity",[12],converted fibroblast to brown adipocytes having lipid droplets stained with BODIPY
same,"conversion of human fibroblast to osteoblast, Alizarin Red S staining (absorbance OD 550 nm)",[13],converted to osteoblast having calcified bone matrix production ability
same,"conversion of fibroblast to brown adipocyte, Oil Red O staining",[14],converted fibroblast to brown adipocyte
Nc1nccc2c1ncn2[C@@H]1C=C(CO)C(O)[C@@H]1O (stereo partly shown) [DZnep],"conversion from fibroblast to osteoblast, Alizarin Red S staining and absorbance",[1],do not induce conversion from fibroblast to osteoblast
COc1cc2c(cc1-c1c(C)noc1C)ncc1[nH]c(=O)n([C@H](C)c3ccccn3)c12 [I-BET],"conversion from fibroblast to osteoblast, Alizarin Red S staining and absorbance",[1],do not induce conversion from fibroblast to osteoblast
O=C(NOC[C@H](O)CO)c1ccc(F)c(F)c1Nc1ccc(I)cc1F [PD0325901],"conversion from fibroblast to osteoblast, Alizarin Red S staining and absorbance",[1],do not induce conversion from fibroblast to osteoblast
same,"conversion of fibroblast to brown adipocytes, AdipoQ mRNA",[6],converted fibroblast to brown adipocytes expressing mRNA of AdipoQ gene
Cc1ccc(C(=O)Cn2c3c(sc2=N)CCCC3)cc1 [Pifthrin-α],"conversion from fibroblast to osteoblast, Alizarin Red S staining and absorbance",[1],do not induce conversion from fibroblast to osteoblast
"NC(=O)c1ccc(-c2nc(-c3ccc4c(c3)OCO4)c(-c3ccccn3)[nH]2)cc1 [SB431542, 4-[4-(1,3-Benzodioxol-5-yl)-5-(pyridin-2-yl)-1H-imidazol-2-yl]benzamide]","lipid droplets stained with Bodipy, inhibitor alone",[2],only a few cells contained lipid droplets stained with Bodipy
same,"lipid droplets stained with Bodipy / conversion to white adipocyte, inhibitor and Rosiglitazone",[2],many cells were stained
same,"conversion from fibroblast to osteoblast, Alizarin Red S staining and absorbance",[1],induce conversion from fibroblast to osteoblast
same,"fat accumulation (BODIPY) / conversion to white adipocyte, co-addition of Rosiglitazone",[3],more strongly induced fat accumulation than by the addition of Rosiglitazone alone
same,efficiency in converting fibroblast to osteoblast (summary statement),[4],highly efficient in converting fibroblast to osteoblast
same,"conversion of human fibroblast to osteoblast, Osteocalcin and Alkaline Phosphatase mRNA",[5],converted to osteoblast expressing osteocalcin and alkaline phosphatase gene
same,"conversion of fibroblast to brown adipocytes, AdipoQ mRNA",[6],converted fibroblast to brown adipocytes expressing mRNA of AdipoQ gene
same,"conversion of fibroblast to brown adipocytes, CIDEA mRNA",[7],converted fibroblast to brown adipocytes expressing mRNA of CIDEA gene
same,"conversion of fibroblast to brown adipocyte, UCP1 mRNA",[8],converted fibroblast to brown adipocyte strongly expressing UCP1 gene
same,"conversion of human fibroblast to osteoblast, Alizarin Red S staining (staining figure)",[9],converted to osteoblast having calcified is bone matrix production ability
same,conversion of human fibroblast to white adipocyte (mRNA markers),[10],converted human fibroblast to white adipocyte
same,"conversion of fibroblast to brown adipocyte, UCP1 protein",[11],converted fibroblast to brown adipocyte expressing UCP1 protein
same,staining with anti-UCP1 antibody,[11],many cells were stained with anti-UCP1 antibody
same,"conversion of fibroblast to brown adipocytes, BODIPY staining and fluorescence intensity",[12],converted fibroblast to brown adipocytes having lipid droplets stained with BODIPY
same,"conversion of human fibroblast to osteoblast, Alizarin Red S staining (absorbance OD 550 nm)",[13],converted to osteoblast having calcified bone matrix production ability
same,"conversion of fibroblast to brown adipocyte, Oil Red O staining",[14],converted fibroblast to brown adipocyte
"Fc1ccc(Cl)cc1-c1nc(Nc2ccncc2)c2nccnc2n1 [SD208, 2-(5-Chloro-2-fluorophenyl)-4-[(4-pyridyl)amino]pteridine]","conversion of human fibroblast to osteoblast, Alizarin Red S / ALP staining and absorbance","[4]; calcification induction medium, compounds 1 or 4 μM, TGF-β 10 ng/ml, day 21, FIG. 35, 36",can strongly convert human fibroblast to osteoblast
same,efficiency in converting fibroblast to osteoblast (summary statement),[4],highly efficient in converting fibroblast to osteoblast
"C=C1/C(=C\C=C2/CCC[C@]3(C)[C@@H]([C@H](C)CCCC(C)(C)O)CC[C@@H]23)C[C@@H](O)C[C@@H]1O [VD3, 1α,25-dihydroxy Vitamin D3]","mRNA expression of OC, ALK5 i II and VD3 compared to ALK5 i II",[15]; VD3 5 nM added with ALK5 i II 4 μM,significantly increased
IGF-1: Human insulin-like growth factor-1,"mRNA expression of BSP, ALK5 i II and IGF-1 compared to ALK5 i II",[15]; IGF-1 100 ng/ml added with ALK5 i II 4 μM,further significantly increased
